# Bridges are numbered along the chain shown (N, C = ends). Where no end group is shown, it is not given here. [ ]: non-standard residue; d: D form. Dhb = C/C=C(\N)C(=O)O; Dha = C=C(N)C(=O)O
# System: Micrococcus flavus DSM 1790
# Test: plate diffusion assay for antibacterial activity
# Format: cell-based
# Details: fraction desorbed with 1 M KCI in phosphate buffer, pH 7.0
# Method: Antibacterial activities of the peptide mixtures and/or isolated peptides were determined by a plate diffusion assay using Micrococcus flavus DSM 1790 as indicator organism. M. flavus was grown in MF broth (0.1% sucrose, 1% peptone, 0.3% meat extract, 0.2% NaCI, 0.15% yeast extract pH 7.0). Peptide mixtures were tested at concentrations from 0.2 mg/ml to 50 mg/ml in bidistilled water.
substance,measurement,value
"nisin A (I[Dhb]SI[Dha]LCTPGCKTGALMGCNMKTATCHCSIHV[Dha]K; bridge 23-26, 13-19, 8-11, 25-28, 3-7; not fully specified (bridges); UniProt P13068 24-57, looked up) [lantibiotic]",activity against Micrococcus flavus,showed activity
